Results: US9056104B2, “Dynamic inhibitors of heat shock protein 90” (THE UNIVERSITY OF KANSAS, priority 2011, dated 2015)
Like-named read-outs stand apart in the source and are kept apart here.

Experiments:
[1] = tested on: SKBr3 (estrogen receptor negative, Her2 over-expressing breast cancer cells); experiment: Anti-proliferative activity against SKBr3 cells; format: cell-based; conditions: for IC50: mean ± SD
Protocol: (§1) Once synthesized, the library of coumermycin A1 analogs containing the olefinic and saturated linkers, were evaluated for anti-proliferative activity against SKBr3 (estrogen receptor negative, Her2 over-expressing breast cancer cells), MCF-7 (estrogen receptor positive breast cancer cells), A549 (human lung adenocarcinoma epithelial), HT29 (Human colon adenocarcinoma grade II), and PC3mm2 (androgen receptor insensitive prostate cancer) cell lines. […] As shown, X is at the 6 position and Y is at the 8 position.

[2] = tested on: MCF-7 (estrogen receptor positive breast cancer cells); experiment: Anti-proliferative activity against MCF-7 cells; format: cell-based; conditions: mean ± SD
Protocol: as §1

[3] = tested on: PC3mm2 (androgen receptor insensitive prostate cancer); experiment: Anti-proliferative activity against PC3mm2 cells; format: cell-based
Protocol: as §1, with “lines. The activities produced provide insight into the optimal distance between binding sites and provide rationale for subsequent analog design.” for “lines.”

[4] = tested on: A549 (human lung adenocarcinoma epithelial); experiment: Anti-proliferative activity against A549 cells; format: cell-based
Protocol: as §1, with “lines. The activities produced provide insight into the optimal distance between binding sites and provide rationale for subsequent analog design.” for “lines.”

[5] = tested on: HT29 (Human colon adenocarcinoma grade II); experiment: Anti-proliferative activity against HT29 cells; format: cell-based
Protocol: as §1, with “lines. The activities produced provide insight into the optimal distance between binding sites and provide rationale for subsequent analog design.” for “lines.”

[6] = tested on: cancer cells; conditions: previously found, background; read-out: IC50 against cancer cells (anti-proliferative activity); cited from earlier work
[7] = tested on: SKBr3, MCF-7, A549, HT29 and PC3mm2 cell lines; experiment: Anti-proliferative activity, cell lines not specified; format: cell-based; conditions: versus Compounds 65-70
Protocol: as §1, with “lines. The activities produced provide insight into the optimal distance between binding sites and provide rationale for subsequent analog design.” for “lines.”

[8] = Table 2, read-out: Anti-Proliferation Activities of non-Noviosylated Olefin Dimers, SKBr3
[9] = Table 2, read-out: Anti-Proliferation Activities of non-Noviosylated Olefin Dimers, MCF7
[10] = Table 2, read-out: Anti-Proliferation Activities of non-Noviosylated Olefin Dimers, PC3mm2
[11] = Table 2, read-out: Anti-Proliferation Activities of non-Noviosylated Olefin Dimers, A549
[12] = Table 4, read-out: Anti-Proliferation Activities of Biaryl Dimers, SKBr3
[13] = Table 4, read-out: Anti-Proliferation Activities of Biaryl Dimers, MCF-7

IC50 [1, 8] [µM] | IC50 [2, 9] [µM] | IC50 [3, 10] [µM] | IC50 [4, 11] [µM] | SMILES | further results
1.1 ± 0.13 | 1.31 ± 0.1 | 4.86 | 13.4 | COc1cc2cc(NC(=O)CC/C=C/CCC(=O)Nc3cc4cc(OC)c(OC5CCN(C)CC5)c(C)c4oc3=O)c(=O)oc2c(C)c1OC1CCN(C)CC1 [Compound 30] | 
0.27 ± 0.01 | 0.56 ± 0.05 | 0.17 | 0.55 | COc1cc2cc(NC(=O)C/C=C/CC(=O)Nc3cc4cc(OC)c(OC5CCN(C)CC5)c(C)c4oc3=O)c(=O)oc2c(C)c1OC1CCN(C)CC1 [Compound 27] | 
 |  |  |  | COc1cc(C(=O)Nc2cc3ccc(OC4OC(C)(C)C(OC)C(O)C4O)c(C)c3oc2=O)cc(-c2cc(OC)cc(C(=O)Nc3cc4ccc(OC5OC(C)(C)C(OC)C(O)C5O)c(C)c4oc3=O)c2)c1 (stereo not shown) [Compound 68] | IC50 [1, 12]: 1.95 ± 0.4 µM; IC50 [2, 13]: 1.85 ± 0.52 µM; IC50 ([3]; Table 4, read-out: Anti-Proliferation Activities of Biaryl Dimers, PC3mm2): 12.5 µM; IC50 ([4]; Table 4, read-out: Anti-Proliferation Activities of Biaryl Dimers, A549): 28.9 µM; IC50 ([5]; Table 4, read-out: Anti-Proliferation Activities of Biaryl Dimers, HT29): 11.7 µM
 |  |  |  | COc1cc2cc(NC(=O)CC=CCC(=O)Nc3cc4cc(OC)c(OC5OC(C)(C)C(OC)C(O)C5O)c(C)c4oc3=O)c(=O)oc2c(C)c1OC1OC(C)(C)C(OC)C(O)C1O (stereo not shown) [Compound 16] | IC50 ([1]; Table 1, at least two experiments in triplicate, read-out: Anti-Proliferation Activities of Noviosylated Olefin Dimers, SKBr3): > 100 µM; IC50 ([2]; Table 1, at least two experiments in triplicate, read-out: Anti-Proliferation Activities of Noviosylated Olefin Dimers, MCF-7): > 100 µM
 |  |  |  | COc1cc(C(=O)Nc2cc3ccc(OC4OC(C)(C)C(OC)C(O)C4O)c(C)c3oc2=O)cc(-c2cc(C(=O)Nc3cc4ccc(OC5OC(C)(C)C(OC)C(O)C5O)c(C)c4oc3=O)ccc2OC)c1 (stereo not shown) [Compound 67] | IC50 [1, 12]: 28.5 ± 4.4 µM; IC50 [2, 13]: 38 ± 1.5 µM
 |  |  |  | Cc1c(OC2CCN(C)CC2)ccc2cc(NC(=O)CCCCC(=O)Nc3cc4ccc(OC5CCN(C)CC5)c(C)c4oc3=O)c(=O)oc12 [Compound 42] | IC50 ([1]; Table 3, read-out: Anti-Proliferation Activities of Saturated Linker Dimers, SKBr3): 1.26 ± 0.2 µM; IC50 ([2]; Table 3, read-out: Anti-Proliferation Activities of Saturated Linker Dimers, MCF-7): 2.46 ± 0.4 µM
0.18 ± 0.03 | 0.29 ± 0.01 | 7.51 | 8.84 | Cc1c(OC2CCN(C)CC2)ccc2cc(NC(=O)C/C=C/CC(=O)Nc3cc4ccc(OC5CCN(C)CC5)c(C)c4oc3=O)c(=O)oc12 [Compound 26] | IC50 ([5]; Table 2, read-out: Anti-Proliferation Activities of non-Noviosylated Olefin Dimers, HT29): 7.1 µM
0.71 ± 0.04 | 1.46 ± 0.2 | 8.63 |  | COc1c(OC2CCN(C)CC2)ccc2cc(NC(=O)C/C=C/CC(=O)Nc3cc4ccc(OC5CCN(C)CC5)c(OC)c4oc3=O)c(=O)oc12 [Compound 28] | 
0.51 ± 0.06 | 0.73 ± 0.1 |  |  | Cc1c(OC2CCN(C)CC2)ccc2cc(NC(=O)CCCC/C=C/CCCCC(=O)Nc3cc4ccc(OC5CCN(C)CC5)c(C)c4oc3=O)c(=O)oc12 [Compound 35] | 
 |  |  |  | COc1ccc(C(=O)Nc2cc3cc(OC)c(OC4OC(C)(C)C(OC)C(O)C4O)c(C)c3oc2=O)cc1-c1cc(C(=O)Nc2cc3cc(OC)c(OC4OC(C)(C)C(OC)C(O)C4O)c(C)c3oc2=O)ccc1OC (stereo not shown) [Compound 69] | IC50 [1, 12]: 0.11 ± 0.05 µM; fold more active on SkBr3 cell lines than corresponding 8-Me and 8-OMe coumarin analogs (Compounds 66 and 68) ([1]; versus Compounds 66 and 68): 7-8 fold; IC50 [2, 13]: 0.72 ± 0.21 µM
 |  |  |  | CO[C@@H]1[C@@H](OC(N)=O)[C@@H](O)[C@H](Oc2ccc3c(O)c(NC(=O)c4ccc(O)c(CC=C(C)C)c4)c(=O)oc3c2C)OC1(C)C [novobiocin] | IC50 [6]: ~700 µM
> 100 | 49.9 ± 2.6 | 32.9 | 77.6 | Cc1c(OC2CCN(C)CC2)ccc2cc(NC(=O)CC/C=C\CCC(=O)Nc3cc4ccc(OC5CCN(C)CC5)c(C)c4oc3=O)c(=O)oc12 [Compound 38] | 
 |  |  |  | COc1ccc(C(=O)Nc2cc3ccc(OC(C)=O)c(C)c3oc2=O)cc1-c1cc(C(=O)Nc2cc3ccc(OC(C)=O)c(C)c3oc2=O)ccc1OC [Compound 73] | IC50 ([1]; Table 5, read-out: Anti-Proliferation Activities Non-Noviosylated Biaryl Dimers, SKBr3): 11.8 ± 0.8 µM; IC50 ([2]; Table 5, read-out: Anti-Proliferation Activities Non-Noviosylated Biaryl Dimers, MCF-7): > 100 µM; fold less active than the corresponding noviosylated coumarin-containing analogs (Compounds 65-70) [7]: ~10 fold
